Source: patent US7048907B2, “Synthesis, compositions and methods for the measurement of the concentration of stable-isotope labeled compounds in life forms and life form excretory products” (BioPhysics Assay Laboratory, Inc., priority 2001, dated 2006)
Where two headings read alike, the source gives them in different places.

What was measured:
[1] = in vivo; cited from earlier work
[2] = Assay of chelate on carboxymethyl (CM) Sephadex column (chelate formation, charge); type: physicochemical; details: for % of total: DOTA chelates; for umol Gd: atomic absorption
Procedure: Preparation of carboxymethyl sephadex column. To two 10 ml plastic pipets cut off at the 3 ml mark and plugged with glass wool at the bottom add enough slurry to form a 2 ml volume of the CM sephadex. Wash the packed resin with 6 ml of 1 M Tris buffer pH 7.5, and 6 ml of 0.01M Tris buffer pH 7.5. […] Collect the eluants of fractions as follows. Fraction 1.3 ml of 0.01 M Tris buffer pH 7.5 and allow to drain into column. Fraction 2.1 ml of sample (gadolinium-DTPA or gadolinium chloride) and allow to drain into column. Apply 3 ml of 0.01 M Tris buffer pH 7.5 and allow to drain into column. Fraction 3.3 ml of 0.01M Tris buffer pH 7.5 and allow to drain into column. Dry all fractions at 70° C. for 76 hours, dissolve in 1 ml of 1 mM HCl and assay by atomic absorption.
(§1) Preparation of carboxymethyl Sephadex column. To two 10 ml plastic pipets which had been cut off at the 3 ml mark and plugged with glass wool at the bottom, enough slurry was added to form a 2 ml volume of the CM Sephadex. The packed resin was wash with 6 ml of 1 M Tris buffer pH 7.5, and 6 ml of 0.01M Tris buffer pH 7.5. […] Fractions were applied as follows. Fraction 1. Three ml of 0.01 M Tris buffer pH 7.5 and allow to drain into column. Fraction 2. One ml of sample (samarium-DTPA or samarium chloride) and allow to drain into column. Apply 3 ml of 0.01 M Tris buffer pH 7.5 and allow to drain into column. Fraction 3. Three ml of 0.01M Tris buffer pH 7.5 and allow to drain into column. Collect the eluant of fractions 1 through 3. Fraction 4. Column and contents.
as §1, with “were” for “had been”, “washed” for “wash”, “(lanthanum-DTPA” for “(samarium-DTPA”, “lanthanum” for “samarium”
as §1, with “were” for “had been”, “washed” for “wash”, “(Europium-DTPA” for “(samarium-DTPA”, “Europium” for “samarium”
Preparation of carboxymethyl sephadex column. To a 10 ml plastic pipet cut off at the 3 ml mark and plugged with glass wool at the bottom, add enough slurry to form a 2 ml volume of the CM sephadex. Wash the packed resin with 6 ml of 1 M Tris buffer pH 7.5, and 6 ml of 0.01M Tris buffer pH 7.5. […] Apply fractions as follows. Fraction 1. One ml of sample A and allow to drain into column.

[3] = demonstrated by properties of the marketed pharmaceutical product; cited from earlier work
[4] = male, New Zealand White, rabbit, in vivo
Procedure: One New Zealand White male rabbit (m=2 kg) was sedated with intramuscular ketanine (35 mg/kg) and xylazine (5 mg/kg). Both the right and left ear veins were catheterized. One line was used to inject Iohexol (Omnipaque®, Nycomed, Inc., Princeton, N.J.). The injected dose (ID) was 90 mg of iodine. […] For each blood sample, 100 μl of serum was placed in a clean sample vial. A metallic monitor was than added to each vial to account for potential neutron flux density variations during neutron activation analysis. Neutron activation was performed in a 2 megawatt reactor for 1 min and samples were counted within 30 minutes following activation. Counts were converted into disintegrations per minute and the measured iodine concentration for each sample was plotted as a function of time of sample withdrawal. The data was fit to a two compartment exponential model using the equation: Plasma concentration=Ae^−(at)+Be^−(bt). […] The GFR (ml/kg/min) was than calculated as follows: GFR=(ID/AUC)/m, where: ID=initial dose of iohexol, AUC=(A/a+B/b), and m=minutes.

[5] = Fraction 1: 1 ml sample diluted 1:10 then 3 ml 0.01M Tris pH 7.5 (eluate)
[6] = Fraction 2: further 3 ml 0.01M Tris pH 7.5

**Q.** For `O=C([O-])C(NCCNC(C(=O)[O-])c1ccccc1[O-])c1ccccc1[O-].[Fe+3]` (stereo not drawn) [FE-EHPG], which uptake into liver [1] is on record?
**A.** 6 % of an administered dose

**Q.** With `O=C([O-])CN1CCN(CC(=O)[O-])CCN(CC(=O)O)CCN(CC(=O)[O-])CC1.[Gd+3]` [Gd-DOTA, Gd-(1,4,7,10-tetraazacyclododecane-1,4,7,10-tetraacetic acid), reference compound] as the compound, how does the “% eluted from the CM-Sephadex column” value [2] read?
**A.** 100%

**Q.** What about the “% of total” value [2, 5] of the same compound?
**A.** 100 % of total

**Q.** What about the “% of total” value [2, 6] of the same compound?
**A.** 0 % of total

**Q.** What about the “umol Gd” value [2, 5] of the same compound?
**A.** 0.1 µmol

**Q.** And the “umol Gd” value [2, 6]?
**A.** 0 µmol

**Q.** And the “time within which the chelate forms” value ([2]; room temperature, Tris pH 7.5)?
**A.** ≤ 5 min

**Q.** What about the “stability to autoclaving” value [3] of the same compound?
**A.** stable to autoclaving

**Q.** Which results are given for `CC(=O)N(CC(O)CO)c1c(I)c(C(=O)NCC(O)CO)c(I)c(C(=O)NCC(O)CO)c1I` (stereo not drawn) [Iohexol]?
**A.** GFR [4]: 4.8 mL/min/kg; serum concentration ([4]; 5 min): 124.4 µg/mL; serum iodine signal ([4]; 5 min): 5166.1 dpm/ul; serum concentration ([4]; 10 min): 109.4 µg/mL; serum iodine signal ([4]; 10 min): 4541.7 dpm/ul; serum concentration ([4]; 15 min): 86.6 µg/mL; serum iodine signal ([4]; 15 min): 3595.7 dpm/ul; serum concentration ([4]; 20 min): 88.85 µg/mL; serum iodine signal ([4]; 20 min): 3689.4 dpm/ul; serum concentration ([4]; 30 min): 67.69 µg/mL; serum iodine signal ([4]; 30 min): 2810.5 dpm/ul; serum concentration ([4]; 45 min): 47.02 µg/mL; serum iodine signal ([4]; 45 min): 1952.3 dpm/ul; serum concentration ([4]; 60 min): 48.94 µg/mL; serum iodine signal ([4]; 60 min): 2032.3 dpm/ul; serum concentration ([4]; 96 min): 31.74 µg/mL; serum iodine signal ([4]; 96 min): 1317.8 dpm/ul; serum concentration ([4]; 120 min): 23.65 µg/mL; serum iodine signal ([4]; 120 min): 982.0 dpm/ul
